Laboratory results: patent publication US11254690B2, “PTEFb inhibiting macrocyclic compounds” (BAYER AKTIENGESELLSCHAFT, priority 2017, dated 2022)
Read-outs that look alike come from different tables or passages of the source.

Assays:
CDK9/CycT1 = biological target: T1, CDK9/CycT1 (Homo sapiens, UniProt P50750); test: CDK9/CycT1 high ATP kinase assay (TR-FRET, 2 mM ATP); format: biochemical; settings: for IC50: 2 mM ATP, Method 1b, lower limit for IC50s about 1-2 nM; for Selectivity high ATP CDK9 over high ATP CDK2: IC50 (high ATP CDK2)/IC50 (high ATP CDK9): ratio from Methods 1b and 2b, minimal values for IC50s near the assay limit
T1 construct: Recombinant full-length His-tagged human CDK9 and CycT1; His; purchased Life Technologies PV4131; host or cells: insect cells
Procedure, shortened: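 Full-length His-tagged human CDK9/CycT1 from insect cells (about 0.5 μg/ml) was preincubated with compound for 15 min at 22° C in 50 mM Tris/HCl pH 8.0, 10 mM MgCl2, 1.0 mM DTT. Phosphorylation was detected by TR-FRET with anti-RB(pSer807/pSer811) antibody, as the 665/622 nm ratio normalised to no-inhibitor and no-enzyme controls.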

A2780 cells = test: Proliferation assay, A2780; format: cell-based, human; settings: 72-hour exposure, Cell Titre-Glo, read-out: Inhibition of A2780 cell proliferation IC50
Method: Cultivated tumour cells (HeLa, human cervical tumour cells, ATCC CCL-2; NCI-H460, human non-small cell lung carcinoma cells, ATCC HTB-177; DU 145, hormone-independent human prostate carcinoma cells, ATCC HTB-81; HeLa-MaTu-ADR, multidrug-resistant human cervical carcinoma cells, EPO-GmbH Berlin; Caco-2, human colorectal carcinoma cells, ATCC HTB-37; B16F10, mouse melanoma cells, ATCC CRL-6475) were plated at a density of 5,000 cells/well (DU145, HeLa-MaTu-ADR), 3,000 cells/well (NCI-H460, HeLa), 1,500 cells/well (Caco-2), or 1,000 cells/well (B16F10) in a 96-well multititer plate in 200 μL of their respective growth medium supplemented 10% fetal calf serum. After 24 hours, the cells of one plate (zero-point plate) were stained with crystal violet (see below), while the medium of the other plates was supplemented with the test substances in various concentrations (0 μM, as well as in the range of 0.0001-10 μM; the final concentration of the solvent dimethyl sulfoxide was adjusted to 0.1%) using a Hewlett-Packard HP D300 Digital Dispenser. The cells were incubated for 4 days in the presence of test substances. Cell proliferation was determined by staining the cells with crystal violet: the cells were fixed by adding 20 μl/measuring point of an 11% glutaric aldehyde solution for 15 minutes at room temperature. After three washing cycles of the fixed cells with water, the plates were dried at room temperature. The cells were stained by adding 100 μl/measuring point of a 0.1% crystal violet solution (pH 3.0). After three washing cycles of the stained cells with water, the plates were dried at room temperature. The dye was dissolved by adding 100 μl/measuring point of a 10% acetic acid solution. The extinction was determined by photometry at a wavelength of 595 nm. The change of cell number, in percent, was calculated by normalization of the measured values to the extinction values of the zero-point plate (=0%) and the extinction of the untreated ([…]) cells (=100%). The IC50 values (inhibitory concentration at 50% of maximal effect) were determined by means of a 4 parameter fit. A2780 human ovarian carcinoma cells (ECACC #93112519) and non-adherent MOLM-13 human acute myeloid leukemia cells (DSMZ ACC 554) were seeded at a density of 3,000 cell/well (A2780) or 5,000 cells/well (MOLM-13) in a 96-well multititer plate in 150 μL of growth medium supplemented 10% fetal calf serum. After 24 hours, cell viability of one plate (zero-point plate) was determined with the Cell Titre-Glo Luminescent Cell Viability Assay (Promega), while the medium of the other plates was supplemented with the test substances in various concentrations (0 μM, as well as in the range of 0.0001-10 μM; the final concentration of the solvent dimethyl sulfoxide was adjusted to 0.1%) using a Hewlett-Packard HP D300 Digital Dispenser. Cell viability was assessed after 72-hour exposure with the Cell Titre-Glo Luminescent Cell Viability Assay (Promega). IC50 values (inhibitory concentration at 50% of maximal effect) were determined by means of a 4 parameter fit on measurement data which were normalized to vehicle (DMSO) treated cells (=100%) and measurement readings taken immediately before compound exposure (=0%).

T1 sequence (P50750 whole entry): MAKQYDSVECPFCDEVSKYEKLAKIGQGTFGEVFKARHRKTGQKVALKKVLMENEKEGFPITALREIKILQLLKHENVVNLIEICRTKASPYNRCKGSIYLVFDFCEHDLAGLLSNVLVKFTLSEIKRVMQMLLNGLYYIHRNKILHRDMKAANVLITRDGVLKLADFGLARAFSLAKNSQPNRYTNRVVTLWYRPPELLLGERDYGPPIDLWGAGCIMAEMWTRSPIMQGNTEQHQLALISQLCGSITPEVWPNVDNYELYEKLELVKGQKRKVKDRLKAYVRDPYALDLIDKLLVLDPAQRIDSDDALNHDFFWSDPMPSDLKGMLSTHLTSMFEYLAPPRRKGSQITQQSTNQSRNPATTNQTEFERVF
T1 sequence (O60563 whole entry partner): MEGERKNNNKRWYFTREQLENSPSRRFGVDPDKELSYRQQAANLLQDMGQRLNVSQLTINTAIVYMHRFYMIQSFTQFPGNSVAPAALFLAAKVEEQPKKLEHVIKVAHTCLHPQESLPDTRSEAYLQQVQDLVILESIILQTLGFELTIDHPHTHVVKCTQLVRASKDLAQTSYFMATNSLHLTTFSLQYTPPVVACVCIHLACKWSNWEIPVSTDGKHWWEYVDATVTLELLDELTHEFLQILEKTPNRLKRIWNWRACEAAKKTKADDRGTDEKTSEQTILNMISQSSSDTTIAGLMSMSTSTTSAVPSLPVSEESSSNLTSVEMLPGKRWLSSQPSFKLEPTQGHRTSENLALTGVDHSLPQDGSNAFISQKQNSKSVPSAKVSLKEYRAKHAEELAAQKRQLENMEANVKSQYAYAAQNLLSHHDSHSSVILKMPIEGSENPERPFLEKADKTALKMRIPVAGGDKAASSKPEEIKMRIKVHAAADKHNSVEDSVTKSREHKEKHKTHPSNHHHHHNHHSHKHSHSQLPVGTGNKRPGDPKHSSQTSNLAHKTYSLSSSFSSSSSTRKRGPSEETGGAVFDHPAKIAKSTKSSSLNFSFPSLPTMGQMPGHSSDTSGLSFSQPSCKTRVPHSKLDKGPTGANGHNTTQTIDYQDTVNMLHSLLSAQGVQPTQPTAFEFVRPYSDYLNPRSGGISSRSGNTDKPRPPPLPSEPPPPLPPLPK

| SMILES | IC50 (CDK9/CycT1) | Selectivity high ATP CDK9 over high ATP CDK2: IC50 (high ATP CDK2)/IC50 (high ATP CDK9) (CDK9/CycT1) | IC50 (A2780 cells; Homo sapiens, A2780, 72 h) | IC50 (A2780 cells) |
| --- | --- | --- | --- | --- |
| CS(=N)(=O)Cc1cc2nc(c1)OCCCCOc1cc(ccc1F)-c1cc(ncc1F)N2 (racemic) [Example 2, (rac)-3,20-difluoro-10-[(S-methylsulfonimidoyl)methyl]-13,18-dioxa-5,7,24-triazatetracyclo[17.3.1.1^2,6.1^8,12]pentacosa-1(23),2(25),3,5,8(24),9,11,19,21-nonaene] | 7 nM | 105 | 9 nM | – |
| CC(C)(C)OC(=O)N=S(C)(=O)Cc1cc2cc(c1)OCCCCOc1cc(ccc1F)-c1nc(ncc1F)N2 (racemic) [Example 3, (rac)-tert-butyl [{[3,20-difluoro-13,18-dioxa-5,7,25-triazatetracyclo[17.3.1.1^2,6.1^8,12]pentacosa-1(23),2(25),3,5,8(24),9,11,19,21-nonaen-10-yl]methyl}(methyl)oxido-λ^6-sulfanylidene]carbamate] | 5 nM | >4000 | 56 nM | – |
| CS(=N)(=O)Cc1cc2cc(c1)OCCCCOc1cc(ccc1F)-c1nc(ncc1F)N2 (racemic) [Example 4, (rac)-3,20-difluoro-10-[(S-methylsulfonimidoyl)methyl]-13,18-dioxa-5,7,25-triazatetracyclo[17.3.1.1^2,6.1^8,12]pentacosa-1(23),2(25),3,5,8(24),9,11,19,21-nonaene] | 3 nM | 513 | 41 nM | – |
| CC(C)(C)OC(=O)N=S(C)(=O)Cc1cc2cc(c1)OCCCCCOc1cc(ccc1F)-c1nc(ncc1F)N2 (racemic) [Example 5, (rac)-tert-butyl [{[3,21-difluoro-13,19-dioxa-5,7,26-triazatetracyclo[18.3.1.1^2,6.1^8,12]hexacosa-1(24),2(26),3,5,8(25),9,11,20,22-nonaen-10-yl]methyl}(methyl)oxido-λ^6-sulfanylidene]carbamate] | 24 nM | >833 | > 100 nM | – |
| CS(=N)(=O)Cc1cc2cc(c1)OCCCCCOc1cc(ccc1F)-c1nc(ncc1F)N2 (racemic) [Example 6, (rac)-3,21-difluoro-10-[(S-methylsulfonimidoyl)methyl]-13,19-dioxa-5,7,26-triazatetracyclo[18.3.1.1^2,6.1^8,12]hexacosa-1(24),2(26),3,5,8(25),9,11,20,22-nonaene] | 5 nM | 3240 | 39 nM | – |
| CS(=N)(=O)Cc1cc2cc(c1)OCCCCOc1c(F)ccc(c1F)-c1nc(ncc1F)N2 (racemic) [Example 8, (rac)-3,20,23-trifluoro-10-[(S-methylsulfonimidoyl)methyl]-13,18-dioxa-5,7,25-triazatetracyclo[17.3.1.1^2,6.1^8,12]pentacosa-1(23),2(25),3,5,8(24),9,11,19,21-nonaene] | 17 nM | 385 | 68 nM | – |

Other lines, results leading:

| IC50 (CDK9/CycT1) | Selectivity high ATP CDK9 over high ATP CDK2: IC50 (high ATP CDK2)/IC50 (high ATP CDK9) (CDK9/CycT1) | IC50 (A2780 cells; Homo sapiens, A2780, 72 h) | IC50 (A2780 cells) | SMILES |
| --- | --- | --- | --- | --- |
| 25 nM | 190 | 48 nM | – | CS(=N)(=O)Cc1cc2cc(c1)OCCCOc1cc(ccc1F)-c1nc(ncc1F)N2 (racemic) [Example 10, (rac)-3,19-difluoro-10-[(S-methylsulfonimidoyl)methyl]-13,17-dioxa-5,7,24-triazatetracyclo[16.3.1.1^2,6.1^8,12]tetracosa-1(22),2(24),3,5,8(23),9,11,18,20-nonaene] |
| – | 189 | 16 nM | – | CC1CCCOc2cc(ccc2F)-c2cc(ncc2F)Nc2cc(CS(C)(=O)=O)cc(n2)O1 (racemic) [Example 28, 3,20-difluoro-14-methyl-10-[(methylsulfonyl)methyl]-13,18-dioxa-5,7,24-triazatetracyclo[17.3.1.1^2,6.1^8,12]pentacosa-1(23),2(25),3,5,8(24),9,11,19,21-nonaene] |
| – | 72 | – | 6 nM | CC1CCCOc2cc(ccc2F)-c2cc(ncc2F)Nc2cc(CS(C)(=N)=O)cc(n2)O1 (single isomer, unassigned) [Example 16, 3,20-difluoro-14-methyl-10-[(S-methylsulfonimidoyl)methyl]-13,18-dioxa-5,7,24-triazatetracyclo[17.3.1.1^2,6.1^8,12]pentacosa-1(23),2(25),3,5,8(24),9,11,19,21-nonaene] |
| – | 132 | – | 6 nM | CC1CCCOc2cc(ccc2F)-c2cc(ncc2F)Nc2cc(CS(C)(=N)=O)cc(n2)O1 (single isomer, unassigned) [Example 17, 3,20-difluoro-14-methyl-10-[(S-methylsulfonimidoyl)methyl]-13,18-dioxa-5,7,24-triazatetracyclo[17.3.1.1^2,6.1^8,12]pentacosa-1(23),2(25),3,5,8(24),9,11,19,21-nonaene] |
| – | 1225 | – | 27 nM | CC1CCCCOc2cc(ccc2F)-c2cc(ncc2F)Nc2cc(CS(C)(=N)=O)cc(n2)O1 (single isomer, unassigned) [Example 21, 3,21-difluoro-14-methyl-10-[(S-methylsulfonimidoyl)methyl]-13,19-dioxa-5,7,25-triazatetracyclo[18.3.1.1^2,6.1^8,12]hexacosa-1(24),2(26),3,5,8(25),9,11,20,22-nonaene] |
| – | 251 | – | 0.7 nM | CC1CCCCOc2cc(ccc2F)-c2cc(ncc2F)Nc2cc(CS(C)(=N)=O)cc(n2)O1 (single isomer, unassigned) [Example 22, 3,21-difluoro-14-methyl-10-[(S-methylsulfonimidoyl)methyl]-13,19-dioxa-5,7,25-triazatetracyclo[18.3.1.1^2,6.1^8,12]hexacosa-1(24),2(26),3,5,8(25),9,11,20,22-nonaene] |
